Patent US20060265137A1, “Methods to increase the capacity of high content cell-based screening assays” (Cellomics, Inc., priority 2001, published 2006)

Tests used:
p38 and c-jun = assay: Primary high content screen, red channel: cytoplasm to nucleus translocation of p38 and c-jun (pooled reporter set); assay type: cell-based; details: Swiss 3T3 cells, 30 minutes treatment, ALEXA FLUOR 568 secondary antibodies, FIG. 6
Excerpt: (§1) 1. Cytoplasm to nuclear translocation: (A preferred embodiment of the method is described in detail in U.S. Pat. No. 5,989,835) A nuclear image is acquired and preferably thresholded to create a nuclear mask. A cytoplasmic image is created using either the nuclear image or the fluorescent signals from the fluorescent reporter molecules in the reporter set. Preferably, a cytoplasmic mask is created. Translocation of the fluorescent reporter molecules in an appropriate reporter set(s) between the nucleus and cytoplasm can then be determined by detecting fluorescent signals in the nuclear mask and cytoplasmic mask in the presence and absence of the one or more test compounds.
(§2) In this example, two reporter sets were used, each containing two fluorescent reporter molecules. The first reporter set consisted of ALEXA FLUOR® 488 conjugated secondary antibodies (Molecular Probes, Inc.), which both emit fluorescence detectable in the green channel. These secondary antibodies were used to bind to primary antibodies against extracellular (signal) regulated kinase (ERK) (Cell Signaling Technologies, Inc.) and Nf-kB (Zymed, Inc.). The second reporter set consisted of ALEXA FLUOR® 568 conjugated secondary antibodies (Molecular Probes, Inc.) which both emit fluorescence detectable in the red channel. These secondary antibodies were used to bind to primary antibodies against c-jun and p38.
(§3) In this experiment, the transcription factors under investigation translocate from the cytoplasm to the nucleus upon activation. Therefore, the fluorescent reporter molecules, which indirectly bind to the transcription factors, can be used to monitor the distribution of the transcription factors within the cell. However, each reporter reports on a different cellular event (i.e.: ERK translocation, Nf-kB translocation, c-jun translocation, and p38 translocation).
(§4) Swiss 3T3 cells in EMEM culture medium were plated in 96 well plates, at a plating density of 3,500 cells per well, and allowed to incubate overnight. […]

NFkB and ERK = assay: Primary high content screen, green channel: cytoplasm to nucleus translocation of NFkB and ERK (pooled reporter set); assay type: cell-based; details: Swiss 3T3 cells, 30 minutes treatment, ALEXA FLUOR 488 secondary antibodies, versus negative controls, FIG. 5
Excerpt: as §1, §2, §3, §4

Compound	translocation in the red channel (p38 and c-jun) (p38 and c-jun)	translocation in the green channel (NFkB and ERK; difference between cytoplasm and nuclear localization) (NFkB and ERK)
CCCCCCCCCCCCCC(=O)O[C@@H]1[C@@H](C)[C@@]2(O)[C@@H](C=C(CO)C[C@]3(O)C(=O)C(C)=C[C@@H]23)[C@@H]2C(C)(C)[C@]12OC(C)=O [PMA]	increase in translocation for p38 and c-jun	both NFkB and ERK specific translocations can be observed
COc1ccc(C[C@H]2NC[C@H](O)[C@H]2OC(C)=O)cc1 [anisomysin]	increase in translocation for p38 and c-jun	no effect on translocation in the green channel over negative controls
TNF	not	both NFkB and ERK specific translocations can be observed
